Values joined by “and” are separate entries in the source; they are usually repeats but may differ in a detail not shown here. Equal entries are not always repeated.
Key:
[1] = molecular target: T1, E. coli ClpP (Escherichia coli, UniProt P0A6G7); assay: Fluorescence-based E. coli ClpP proteolytic activity assay (Suc-LY-AMC), primary screen and dose-response; assay type: biochemical; conditions: for inhibition at 200 µM: read-out: E. coli ClpP inhibition [%] in the primary screen, primary screen, 200 µM; for Inhibition (%) at 200 μM E. coli ClpP: 200 μM compound concentration; for IC50: dose-response, 1:3 dilution starting from 200 μM, substrate Suc-LY-AMC, read-out: E. coli ClpP IC50
T1 construct: His-tag; made in house; host or cells: E. coli SG1146a
Procedure: Briefly, 25 ng/μL of E. coli ClpP dissolved in a buffer containing 100 mM NaCl, 100 mM 4-(2-hydroxyethyl)-1-piperazineethanesulfonic acid (HEPES) pH 7.5, and 0.05% Brij® 35 were transferred into each well. Test compound addition (final concentration 200 µM) was carried out using an Echo® 550 liquid handling system (Labcyte, Sunnyvale, CA, USA). […] Changes in fluorescence (excitation 350 nm, emission 435 nm) were monitored at 1 min intervals at 30 °C over 1 h using an Infinite M1000 microplate reader (Tecan).
The assay was carried out as described above with increasing concentrations of test compounds. Dose-response experiments were done at least 3 times independently, each in technical triplicates.
Calculation of Z prime (Z’) for HTS assay performance was done according to Zhang et al.. Plates were considered for further analyses if Z’ > 0.6 [26].

[2] = molecular target: T2, bovine α-chymotrypsin (Bos taurus, UniProt P00766); assay: Serine protease selectivity assay with bovine α-chymotrypsin (Suc-LY-AMC); assay type: biochemical; conditions: 200 μM compound concentration
T2 construct: purchased Sigma-Aldrich C4129
Procedure: Compound selectivity was assessed using bovine α-chymotrypsin (#C4129, Sigma-Aldrich, St. Louis, MO, USA) at 200 µM. The assay was carried out as described above, except that 1 ng/μL of α-chymotrypsin and 100 μM of Suc-LY-AMC substrate were dissolved in a buffer containing 150 mM NaCl, 10 mM CaCl2, 50 mM Tris-HCl, and 0.05% Brij® 35.

[3] = test system: A549 cells; assay: in vitro; assay type: cell-based; conditions: for IC50: 48 h incubation, 1:3 dilutions starting from 200 μM, read-out: Cytotoxicity A549 IC50
Procedure: (§1) Potential cell toxicity of the tested compounds was evaluated by ATP quantification using the CellTiter-Glo® luminescent cell viability assay (Promega, Madison, WI, USA). […] After incubation, 20 µL of CellTiter-Glo® reagent were added per well and incubated at room temperature in the dark for another 30 min. Luminescence was quantified by an EnVision multi-plate reader (PerkinElmer, Rodgau, Germany).

[4] = test system: HTC-116 cells; assay: in vitro; assay type: cell-based; conditions: 48 h incubation, 1:3 dilutions starting from 200 μM; read-out: Cytotoxicity HTC-116 IC50
Procedure: as §1

[5] = test system: MCF-7 cells; assay: in vitro; assay type: cell-based; conditions: for IC50: 48 h incubation, 1:3 dilutions starting from 200 μM, read-out: Cytotoxicity MCF-7 IC50
Procedure: as §1

[6] = test system: E. coli JW0427 (ΔclpP); assay: Growth delay under nitric oxide stress (DPTA NONOate) in M9 medium, clpP-deficient strain; assay type: cell-based; conditions: clpP-deficient E. coli, DPTA NONOate, compared with cells without compound
Procedure: (§2) Assessment of E. coli growth delay in presence of nitric oxide stress was carried out following our recently published protocol, which is an adaptation of the method reported by Robinson and Brynildsen to a 96-well plate format. Fresh MHB medium was inoculated with isolated colonies of E. coli BW25-113 or E. coli JW0427-1, grown on Luria Agar, and left overnight in a shaking incubator (250 rpm) at 37 °C. On the following day, the overnight culture was used to inoculate fresh M9 medium (supplemented with 10 mM glucose) 1:100, and was grown until OD600 ~0.3. Afterwards, the culture was transferred into 96-well, flat-bottom, sterile clear plates (#167008, Nunc, VWR). Bacterial OD600 was adjusted to 0.1 with M9 medium (supplemented with 10 mM glucose). Test compounds were transferred into the 96-well plates, followed by addition of the bacterial culture. Nitric oxide stress was induced by addition of 2 mM DPTA NONOate ((Z)-1-[N-(3-aminopropyl)-N-(3-ammoniopropyl)amino]diazen-1-ium-1,2-diolate, Cayman Chemical, Ann Arbor, MI, USA), dissolved in NaOH (final concentration 0.14 mM). Absorbance measurements (600 nm) were done with a Multiskan GO or Varioskan LUX plate reader (Thermo Fisher Scientific, Finland) at hourly intervals for 24 h. Between measurements, plates were incubated in a shaking incubator (500 rpm) at 37 °C.

[7] = test system: E. coli BW25-113 (wild type); assay: Growth delay under nitric oxide stress (DPTA NONOate) in M9 medium, wild type; assay type: cell-based; conditions: WT E. coli, M9 minimal medium
Procedure: as §2

[8] = molecular target: T1, E. coli ClpP; assay: Surface plasmon resonance binding to immobilized ClpP; conditions: 80 µM, injected over 7 min, 30 min dissociation
Procedure: E. coli ClpP (80 μg/mL) protein was immobilized, using amine coupling (SPR-AS-HCA-03, Bruker Daltonics Inc., Billerica, MA, USA), onto the surface of the sensor chip of a SIERRA SPR-16 instrument (Bruker Daltonics GmbH, Bremen, Germany). ClpP protein was dissolved in acetate at pH 4. The running buffer contained 150 mM NaCl, 10 mM Hepes, 3 mM EDTA, and 0.05% (v/v) Tween-20. The flow rate for protein immobilization was 10 μL/min. Binding experiments were carried out using running buffer with the addition of 0.8% (v/v) of DMSO and 80 µM test substance (flow rate of 20 μL/min for 7 min and up to 30 min of dissociation time). […] SPR data were analyzed using the Analyzer 3 software (Bruker Daltonics GmbH), which includes algorithms for subtracting reference signals and accounting for non-specific interactions between the solvent and the sensor chip surface.

T1 sequence (P0A6G7 15-207): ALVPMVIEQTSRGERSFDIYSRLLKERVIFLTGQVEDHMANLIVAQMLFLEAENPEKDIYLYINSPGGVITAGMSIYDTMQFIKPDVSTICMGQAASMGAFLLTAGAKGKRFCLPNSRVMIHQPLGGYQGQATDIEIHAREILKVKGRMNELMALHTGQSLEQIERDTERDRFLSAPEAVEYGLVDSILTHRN

Compound `O=C(O)c1cc(/N=N/c2ccc(S(=O)(=O)Nc3ccccn3)cc2)ccc1O` [Sulfasalazine] has an inhibition at 200 µM [1] of 77.3%.
With `O=C(CCC1CCCC1)NCCN1CCOCC1` [3-cyclopentyl-N-[2-(4-morpholinyl)ethyl]propanamide] the “E. coli ClpP inhibition [%] in the primary screen” value ([1]; primary screen, 200 µM) was 84.44%.
Work on `COC(=O)N[C@H](C(=O)N[C@@H](Cc1ccccc1)[C@@H](O)CN(Cc1ccc(-c2ccccn2)cc1)NC(=O)[C@@H](NC(=O)OC)C(C)(C)C)C(C)(C)C` [Atazanavir] yielded an inhibition at 200 µM [1] of 85%.
In the case of `O=C(O)Cn1c(C(=O)Nc2nc(-c3ccccc3Cl)cs2)cc2ccccc21` [SR 27897 hydrate], the “E. coli ClpP inhibition [%] in the primary screen” value ([1]; primary screen, 200 µM) is reported as 84.71%.
With `N.N.[Cl-].[Cl][Pt+].c1ccncc1` [cDPCP] the “Inhibition (%) at 200 μM α-Chymotrypsin” value [2] was 84.7%, the IC50 [3] was 131 µM and the “Cytotoxicity A549 Ratio (IC50 cytotoxicity/IC50 ClpP)” value ([3]; A549) was 5.33. For the same compound, the IC50 [4] was 283 µM, the IC50 [5] was 3.27 µM and the “Cytotoxicity MCF-7 Ratio (IC50 cytotoxicity/IC50 ClpP)” value ([5]; MCF-7) was 0.13. The “Growth delay in presence of nitric oxide stress” value [6] was “did not show any significant effect”, the “Inhibition (%) at 200 μM E. coli ClpP” value [1] was 91.2% and the IC50 [1] was 24.6 µM. For the same compound, the “E. coli ClpP inhibition [%] in the primary screen” value ([1]; primary screen, 200 µM) was 91.16% and > 90%, the “Bacterial growth in absence of NO• stress” value ([7]; 100 μM compound) was “clearly influenced” and the “SPR signal (resonance units, RU)” value [8] was “high RU values”.
For `O=C(O)C1CCCCC1C(=O)Nc1ccc(S(=O)(=O)NC2CCCCC2)cc1` (stereo not shown) [2-({4-[(cyclohexylamino)sulfonyl]anilino}carbonyl)cyclohexanecarboxylic acid], the “E. coli ClpP inhibition [%] in the primary screen” value ([1]; primary screen, 200 µM) was 72.93%.
Compound `O=C(O)CCNC(=O)c1ccc(/N=N/c2ccc(O)c(C(=O)O)c2)cc1` [Balsalazide] has an inhibition at 200 µM [1] of 76.5%.
For `N#CC(C#N)=C(N)/C(C#N)=C/c1cc(O)c(O)c(O)c1` [Tyrphostin 51], the inhibition at 200 µM [1] was 72.8%.
In the case of `CO/N=C(\C(=O)N[C@@H]1C(=O)N2C(C(=O)O)=C(CSc3nc(=O)c(=O)[nH]n3C)CS[C@H]12)c1csc(N)n1` [ceftriaxone], the inhibition at 200 µM [1] is reported as -4.6 to 19.3%.
`N.N.[Cl][Pt][Cl]` [Cisplatin, cisplatin] gave an IC50 [3] of 86.7 µM, an IC50 [4] of 913 µM and an IC50 [5] of 4.52 µM. For the same compound, the “Growth delay in presence of nitric oxide stress” value [6] was “significantly longer growth delay”, the “Inhibition (%) at 200 μM E. coli ClpP” value [1] was 96.5% and the “Inhibition (%) at 200 μM E. coli ClpP, second value” ([1]; 200 μM, cisplatin was a hit in both screened libraries, second value of the cell) was 98.7%. The IC50 [1] was 31 µM, the “E. coli ClpP inhibition [%] in the primary screen” value ([1]; primary screen, 200 µM) was 96.54% and the “E. coli ClpP inhibition [%] in the primary screen, second library” value ([1]; primary screen, 200 µM, cisplatin present in two libraries (SCREEN-WELL, LOPAC1280), second value) was 98.67%. The “E. coli ClpP inhibition [%] in the primary screen” value ([1]; primary screen, 200 µM, listed as cisplatin) was greater than 90%, the “Growth arrest in presence of DPTA NONOate” value ([7]; 50 μM compound plus DPTA NONOate) was ~ 10 h and the “Bacterial growth in absence of NO• stress” value ([7]; 50 μM compound) was “comparable to the untreated bacteria”. For the same compound, the “Bacterial growth in absence of NO• stress” value ([7]; 100 μM compound) was “affected bacterial growth” and the “SPR signal (resonance units, RU)” value [8] was “high RU values”.
With `O=C(/C=C/c1ccc(O)cc1)CC(=O)/C=C/c1ccc(O)cc1` [Bisdemethoxycurcumin] the inhibition at 200 µM [1] was 76.5%.
With `Cn1c(=O)c2c(ncn2C)n(C)c1=O` [caffeine] the “Covalent / irreversible binding to ClpP by SPR” value [8] was “did not show any interaction”.
For `CCc1ccc(/C=C2/SC(=S)NC2=O)cc1` [10058-F4], the “E. coli ClpP inhibition [%] in the primary screen” value ([1]; primary screen, 200 µM) was 72.82%.

From PMC6600665, “Identification and Characterization of Approved Drugs and Drug-Like Compounds as Covalent Escherichia coli ClpP Inhibitors” (International Journal of Molecular Sciences, 2019)
